From US10287292B2, “CXCR7 antagonists” (CHEMOCENTRYX, INC., priority 2012, dated 2019)

What was measured:
[1] = biological target: T1, CXCR7 receptor (Homo sapiens (Human), UniProt P25106); assay: Buffer Binding Analysis: displacement of 125I-labeled SDF-1 from CXCR7; settings: 125I SDF-1 displacement, buffer binding medium, MCF-7 and/or MDA-MB-435S CXCR7 transfected cells, 3 hr at 4° C.; read-out: Avg Bind IC50
Method: (§1) The compounds were combined with cells expressing the CXCR7 receptor (e.g., MCF cells or cells transfected to express CXCR7) in the presence of the 125 I-labeled SDF-1 chemokine as detailed in Determination of IC50 values. Reagents and Cells (see below). The ability of the compounds to displace the labeled chemokine from the CXCR7 receptor sites at multiple concentrations was then determined with the screening process.
Compounds that were deemed effective modulators were able to displace at least 50% of the SDF-1 from the CXCR7 receptor at concentrations at or below 15 micromolar (μM) but >2500 nM (+); and more preferably at concentrations from >500 nM to ≤2500 nM (++). At present, especially preferred compounds can displace at least 50% of the SDF-1 from the CXCR7 receptor at concentrations at or below 500 nM (+++). Exemplary compounds that met these criteria are reproduced in Table 1 and the Examples above. In Table 1, Avg Bind IC50 refers to the Buffer Binding Analysis described below, while Avg Ser IC50 refers to the Serum Binding Analysis described below. All compounds were prepared as described in the Examples above, or by related methods substituting readily available starting materials.
(§2) ^125I-labeled SDF-1 was purchased from Perkin-Elmer Life Sciences, Inc. (Boston, Mass.). The MCF-7 (adenocarcinoma; mammary gland) cell line was obtained from the American Type Culture Collection (ATCC, Manassas, Va.) or and was cultured in DMEM (Mediatech, Herndon, Va.) supplemented with 10% fetal bovine serum (FBS) (HyClone Logan, Utah) and bovine insulin (0.01 mg/mL) (Sigma. St. Louis, Mo.) at 37° C. in a humidified incubator at a 5% CO2/air mixture. CXCR7 transfected MDA-MB-435S were produced as described below. MDA-MB-435S human breast cancer line, was purchased from ATCC, and cultured in DMEM/10% FBS medium. The complete coding sequence of the gene encoding CXCR7 (a.k.a. CCXCKR2, hRDC1), was isolated from MCF-7 cells using μMACs mRNA isolation kit (Miltenyi Biotec, Auburn, Calif.). DNA contamination was removed by DNase digestion via RNeasy columns (Qiagen, Inc., Valencia, Calif.) and cDNA was generated using GeneAmp RNA PCR Core Kit (Applied Biosystems, Foster City. Calif.). PCR of cDNA samples was performed using Taq PCR Master Mix kit (Qiagen. Inc.) and hRDC1 primers harboring 5′ and 3′ Not I sites (hRDC1F 5′ […]-3, hRDC1R 5′-[…]-3′) Not I digested PCR product was ligated into Not I digested pcDNA3.1(+)(Invitrogen, Carlsbad, Calif.) and screened for orientation and sequence confirmed. Plasmid DNA was then isolated from overnight bacterial cultures by Maxiprep (Qiagen, Inc.). Plasmid DNA (10 μg) was added to MDA-MB-435s cells and cells were electroporated (0.22 kV, 960 uF) via Gene Pulser (Biorad laboratories, Hercules, Calif.). 48 hr post-electroporation, cells were transferred to selection medium (600 ug/ml G418).
(§3) Target compounds can be tested to determine their ability to bind with CXCR7 sites on MCF-7 and/or MDA-MB-435S CXCR7 transfected cells. Efficiency-maxim/zed radioligand binding using filtration protocols as described in Dairaghi D J, et al., HHV8-encoded vMIP-I selectively engages chemokine receptor CCR5. Agonist and antagonist profiles of viral chemokines., J. Biol. Chem. 1999 Jul. 30; 274(31): 21569-74 and Gosling J. et al., Cutting edge: identification of a novel chemokine receptor that binds dendritic cell-and T cell-active chemokines including ELC. SLC, and TECK., J. Immunol. 2000 Mar. 15; 164(6):2851-6 was used.
In these assays, MCF-7 and/or MDA-MB-435S cells are interrogated with the target compounds and the ability of these compounds to displace ^125I radiolabeled SDF-1 assessed using the protocol described in Dairaghi and Gosling. […]

[2] = biological target: T1, CXCR7 receptor; assay: Serum Binding Analysis: displacement of 125I-labeled SDF-1 from CXCR7 in 100% human serum; settings: 125I SDF-1 displacement in 100% human serum, MCF-7 and/or MDA-MB-435S CXCR7 transfected cells, 3 hrs at 4° C.; read-out: Avg Ser IC50
Method: as §1
In Table 1, Avg Bind IC50 refers to the Buffer Binding Analysis described below, while Avg Ser IC50 refers to the Serum Binding Analysis described below. All compounds were prepared as described in the Examples above, or by related methods substituting readily available starting materials.
as §2
as §3, with “In order to more properly assess the binding efficacy of the compounds, radioligand binding assays were carried out in the presence of 100% human serum to more accurately reflect the in vivo environment. […] Target” for “Target”, “compounds were” for “compounds can be”, “Gosling J,” for “Gosling J.”, “dendritic cell- and” for “dendritic cell-and”, “including ELC,” for “including ELC.”, “and TECK,” for “and TECK.,”
In these assays, MCF-7 and/or MDA-MB-435S cells were interrogated with the target compounds and the ability of these compounds to displace 125 I radiolabeled SDF-1 was assessed using the protocol described in Dairaghi and Gosling. The target compounds were added to the plate to the indicated concentration followed by addition of cells and radiolabeled chemokine (125I SDF-1), both in the following medium (human AB serum with 10 mM HEPES added to stabilize at pH 7.4). All assays were then incubated for 3 hrs at 4° C. with gentle agitation.

[3] = test system: C6 cells; assay: Rat C6 model of glioblastoma; format: in vivo; settings: C6 cells implanted into brains of Sprague-Dawley rats, tumors irradiated with 5-20 Gy after 7 days, then compound vs vehicle control
Method: Many tumor models in animals are known in the art, and may be employed to evaluate a compound of instance. For instance, in a rat C6 model of glioblastoma, 1×10^6 C6 cells were implanted by stereotactic injection into the into the brains of Sprague-Dawley rats. After 7 days tumors were irradiated with between 5-20 Gy of radiation. Following irradiation rats were treated (eg via subcutaneous, intraperitoneal, oral, parenteral or other route) with compound or vehicle control and tumors are allowed to progress. Animals were followed until death or loss of >20% weight, or removed for tumor induced neurodeficits eg seizures and immobility in according with appropriate regulations and standards.

T1 sequence (P25106 whole entry): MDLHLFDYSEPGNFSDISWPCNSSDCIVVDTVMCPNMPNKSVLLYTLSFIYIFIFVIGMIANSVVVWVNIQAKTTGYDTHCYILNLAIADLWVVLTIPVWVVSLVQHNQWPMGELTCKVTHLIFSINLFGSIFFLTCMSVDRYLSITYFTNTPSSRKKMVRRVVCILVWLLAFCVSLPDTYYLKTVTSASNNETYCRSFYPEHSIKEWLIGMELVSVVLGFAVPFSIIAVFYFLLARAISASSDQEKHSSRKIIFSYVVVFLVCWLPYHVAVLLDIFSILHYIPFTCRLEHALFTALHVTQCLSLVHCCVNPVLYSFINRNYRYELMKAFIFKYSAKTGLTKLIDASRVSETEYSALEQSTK

| SMILES | IC50 [1] | IC50 [2] | antitumor activity (delay in tumor growth, Kaplan Meier analysis of survival) [3] |
| --- | --- | --- | --- |
| Cc1ccn2ccnc(N3CC[C@H](NC(=O)c4coc(-c5ccc(F)cc5)n4)C3)c12 [Compound 1.116] | ≤ 500 nM | 500 to 2500 nM |  |
| Cc1cc(Cl)ccc1-n1ccc(C(=O)N[C@H]2CCN(c3nccn4cccc34)C2)n1 [Compound 1.094] | ≤ 500 nM | ≤ 500 nM |  |
| Cc1ccn2ccnc(N3CC[C@H](NC(=O)c4ccn(-c5ccc(F)cc5)n4)C3)c12 [Compound 1.106] | ≤ 500 nM | 500 to 2500 nM |  |
| O=C(N[C@H]1CCN(c2nccn3cccc23)C1)c1ncc(-c2ccccc2)cn1 [Compound 1.093] | ≤ 500 nM | ≤ 500 nM |  |
| Cc1ccccc1-n1ccc(C(=O)N[C@H]2CCN(c3nccn4cccc34)C2)n1 [Compound 1.123] | ≤ 500 nM | ≤ 500 nM |  |
| O=C(N[C@H]1CCN(c2nccn3cccc23)C1)c1ncc(-c2ccc(F)cc2)cn1 [Compound 1.076] | ≤ 500 nM | ≤ 500 nM |  |
| O=C(N[C@H]1CCN(c2nccn3ccnc23)C1)c1ccn(C2CCOCC2)n1 [Compound 1.086] | 500 to 2500 nM | 500 to 2500 nM |  |
| O=C(N[C@H]1CCN(c2nccn3ccnc23)C1)c1ncn(-c2ccc(F)cc2)n1 [Compound 1.090] | ≤ 500 nM | ≤ 500 nM | profound antitumor activity |
| O=C(N[C@H]1CCN(c2nccn3ccnc23)C1)c1ccn(-c2ccc(F)cc2)n1 [Compound 1.092] | ≤ 500 nM | ≤ 500 nM |  |
| CC(C)c1cnc(C(=O)N[C@H]2CCN(c3nccn4cccc34)C2)nc1 [Compound 1.077] | ≤ 500 nM | ≤ 500 nM |  |
| O=C(N[C@H]1CCN(c2nccn3cnnc23)C1)c1ccn(-c2ccc(F)cc2)n1 [Compound 1.084] | ≤ 500 nM | ≤ 500 nM |  |
| O=C(N[C@H]1CCN(c2nccn3ccnc23)C1)c1ccn(-c2ccc(Cl)cc2)n1 [Compound 1.102] | ≤ 500 nM | ≤ 500 nM |  |
| O=C(N[C@H]1CCN(c2nccn3ccnc23)C1)c1csc(N2CCC(O)CC2)n1 [Compound 1.079] | ≤ 500 nM | ≤ 500 nM |  |
| O=C(N[C@H]1CCN(c2nccn3cccc23)C1)c1coc(-c2ccccc2)n1 [Compound 1.125] | ≤ 500 nM | ≤ 500 nM |  |
| O=C(N[C@H]1CCN(c2nccn3cnnc23)C1)c1csc(N2CCC(O)CC2)n1 [Compound 1.078] | ≤ 500 nM | ≤ 500 nM |  |
| O=C(N[C@H]1CCN(c2nccn3cnnc23)C1)c1ncn(-c2ccc(F)cc2)n1 [Compound 1.089] | ≤ 500 nM | ≤ 500 nM |  |
| O=C(N[C@H]1CCN(c2nccn3cnnc23)C1)c1ccn(-c2ccc(Cl)cc2)n1 [Compound 1.112] | ≤ 500 nM | 500 to 2500 nM |  |
| O=C(N[C@H]1CCN(c2nccn3cccc23)C1)c1csc(-c2ccccc2)n1 [Compound 1.124] | ≤ 500 nM | ≤ 500 nM |  |
| Cc1ccccc1-n1cnc(C(=O)N[C@H]2CCN(c3nccn4cccc34)C2)n1 [Compound 1.118] | ≤ 500 nM | ≤ 500 nM |  |
| O=C(N[C@H]1CCN(c2nccn3cnnc23)C1)c1coc(-c2ccc(F)cc2)n1 [Compound 1.122] | ≤ 500 nM | ≤ 500 nM |  |
| Cc1ccn2ccnc(N3CC[C@H](NC(=O)c4ccn(-c5ccc(Cl)cc5)n4)C3)c12 [Compound 1.104] | ≤ 500 nM | 2500 to 15000 nM |  |
| O=C(N[C@H]1CCN(c2nccn3cccc23)C1)c1ncn(-c2ccccc2)n1 [Compound 1.126] | ≤ 500 nM | ≤ 500 nM |  |
